Source: ChEMBL document CHEMBL1201862, “PubChem BioAssay data set” (2004)
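Five concentrations, 48 hours, 96-well plates. At the GI50, growth is halved.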 Calls of active or inactive are those of the source. Rule as the data show it: active = GI50 up to about 1.1 µM and inactive = higher.

Key:
Assay in all cases: NCI tumour cell line growth inhibition, 48 h
COLO 205 = test system: COLO 205
MOLT-4 = test system: MOLT-4
SK-MEL-2 = test system: SK-MEL-2
SF-295 = test system: SF-295
A498 = test system: A498
SR = test system: SR
NCI-H226 = test system: NCI-H226
HT-29 = test system: HT-29
U-251 = test system: U-251
ACHN = test system: ACHN
IGROV-1 = test system: IGROV-1
OVCAR-4 = test system: OVCAR-4
M14 = test system: M14
KM12 = test system: KM12
OVCAR-5 = test system: OVCAR-5
SF-539 = test system: SF-539
SK-MEL-5 = test system: SK-MEL-5
OVCAR-8 = test system: OVCAR-8
HCT-116 = test system: HCT-116
SF-268 = test system: SF-268

| Structure (SMILES) | GI50 (COLO 205) | GI50 (MOLT-4) | GI50 (SK-MEL-2) | GI50 (SF-295) | GI50 (A498) | GI50 (SR) | GI50 (NCI-H226) | GI50 (HT-29) | GI50 (U-251) | GI50 (ACHN) | GI50 (IGROV-1) | GI50 (OVCAR-4) | GI50 (M14) | GI50 (KM12) | GI50 (OVCAR-5) | GI50 (SF-539) | GI50 (SK-MEL-5) | GI50 (OVCAR-8) | GI50 (HCT-116) | GI50 (SF-268) |
| --- | --- | --- | --- | --- | --- | --- | --- | --- | --- | --- | --- | --- | --- | --- | --- | --- | --- | --- | --- | --- |
| N#C[C@H](c1ccccn1)c1nc2ccccc2nc1Cl | > 100 µM (inactive) | > 100 µM (inactive) | > 100 µM (inactive) | > 100 µM (inactive) | > 100 µM (inactive) | > 100 µM (inactive) | > 100 µM (inactive) | > 100 µM (inactive) | > 100 µM (inactive) | > 100 µM (inactive) | > 100 µM (inactive) | > 100 µM (inactive) | > 100 µM (inactive) | 36.5 µM (inactive) | > 100 µM (inactive) | > 100 µM (inactive) | > 100 µM (inactive) | > 100 µM (inactive) | > 100 µM (inactive) |  |
| Cc1cc2nc3c(C(O)CO)nn(-c4ccccc4)c3nc2cc1C (centres undefined) |  | 4.3 µM (inactive) | 21.4 µM (inactive) | 15.7 µM (inactive) | 12.1 µM (inactive) | 6.65 µM (inactive) | 30.6 µM (inactive) | 15 µM (inactive) | 15.2 µM (inactive) | 14.4 µM (inactive) | 17.3 µM (inactive) | 20.2 µM (inactive) | 31.3 µM (inactive) | 16.2 µM (inactive) | 22.3 µM (inactive) | 20.7 µM (inactive) | 30.9 µM (inactive) | 23.2 µM (inactive) | 15.3 µM (inactive) | 23.7 µM (inactive) |
| CCOC(=O)c1csc(NC(=O)CN2CCCC2)n1 | > 100 µM (inactive) | > 100 µM (inactive) | > 100 µM (inactive) | > 100 µM (inactive) | > 100 µM (inactive) | > 100 µM (inactive) | > 100 µM (inactive) | > 100 µM (inactive) | > 100 µM (inactive) | > 100 µM (inactive) | > 100 µM (inactive) | > 100 µM (inactive) | > 100 µM (inactive) | > 100 µM (inactive) | > 100 µM (inactive) | > 100 µM (inactive) | > 100 µM (inactive) | > 100 µM (inactive) |  | > 100 µM (inactive) |
| Cc1cc(S(=O)(=O)NC2=NCc3nc4ccccc4n32)c(S)cc1Cl | 19.4 µM (inactive) | 19.6 µM (inactive) | 13.5 µM (inactive) | 19.9 µM (inactive) | 26.9 µM (inactive) | 20.9 µM (inactive) | 20 µM (inactive) |  | 33.5 µM (inactive) | 32.4 µM (inactive) | 24.8 µM (inactive) | 29.4 µM (inactive) | 23.7 µM (inactive) | 21.2 µM (inactive) | 20.7 µM (inactive) | 20.7 µM (inactive) | 16.9 µM (inactive) | 28.1 µM (inactive) | 18.3 µM (inactive) | 32 µM (inactive) |
| O=C1CCCCCCCCCCOC(=O)CCCCCCCCCCO1 | > 100 µM (inactive) |  | > 100 µM (inactive) | > 100 µM (inactive) | > 100 µM (inactive) | 44.7 µM (inactive) | > 100 µM (inactive) | > 100 µM (inactive) | > 100 µM (inactive) | > 100 µM (inactive) | > 100 µM (inactive) | > 100 µM (inactive) | > 100 µM (inactive) | > 100 µM (inactive) | > 100 µM (inactive) | > 100 µM (inactive) | > 100 µM (inactive) | > 100 µM (inactive) | > 100 µM (inactive) | > 100 µM (inactive) |
| O=C(c1ccccc1)c1cc(Cl)ccc1NCn1nnc2ccccc21 | 64.6 µM (inactive) | 42.1 µM (inactive) | 29 µM (inactive) | 85.3 µM (inactive) | 65.2 µM (inactive) | 35.6 µM (inactive) | > 100 µM (inactive) | 51.1 µM (inactive) | 55.2 µM (inactive) | > 100 µM (inactive) | > 100 µM (inactive) | 9.46 µM (inactive) | 88.7 µM (inactive) | 33.2 µM (inactive) |  | 37.8 µM (inactive) |  | > 100 µM (inactive) |  |  |
| CC(=O)NC1=C(C)C(=O)c2c(nc3n2CCC3OC(=O)c2ccccc2)C1=O (centres undefined) | 4 µM (inactive) | 1.99 µM (inactive) | 1.7 µM (inactive) | 1.51 µM (inactive) | 12.7 µM (inactive) | 2.37 µM (inactive) | 2.05 µM (inactive) | 0.514 µM (active) | 1.89 µM (inactive) | 3.04 µM (inactive) | 2.08 µM (inactive) | 1.52 µM (inactive) | 1.98 µM (inactive) | 2.61 µM (inactive) | 1.99 µM (inactive) | 1.93 µM (inactive) | 1.75 µM (inactive) | 1.3 µM (inactive) | 1.94 µM (inactive) | 2.21 µM (inactive) |
| CCOC(=O)c1csc(NC(=O)CCN2CCN(C)CC2)n1 | > 100 µM (inactive) | 65.5 µM (inactive) | > 100 µM (inactive) | > 100 µM (inactive) | > 100 µM (inactive) | 74.3 µM (inactive) | > 100 µM (inactive) | 62.1 µM (inactive) | > 100 µM (inactive) | > 100 µM (inactive) |  | > 100 µM (inactive) | > 100 µM (inactive) | > 100 µM (inactive) | > 100 µM (inactive) | > 100 µM (inactive) | > 100 µM (inactive) | > 100 µM (inactive) |  |  |
| c1ccc2c(c1)c1c(n2CCOCCCN2CCCCC2)CCCC1 | 20.4 µM (inactive) | 4.36 µM (inactive) | 18.7 µM (inactive) |  | 25.8 µM (inactive) | 15.2 µM (inactive) | 16.3 µM (inactive) | 12 µM (inactive) | 16 µM (inactive) | 15.1 µM (inactive) | 14.7 µM (inactive) | 12.5 µM (inactive) | 27.9 µM (inactive) | 15 µM (inactive) | 13.1 µM (inactive) | 15.7 µM (inactive) | 20.6 µM (inactive) | 17.6 µM (inactive) |  | 28.2 µM (inactive) |
| C[N+](C)(C)/C=N\c1cccc2c1CCCC2 | 43.4 µM (inactive) | > 100 µM (inactive) | > 100 µM (inactive) | > 100 µM (inactive) | > 100 µM (inactive) | 16 µM (inactive) | 58.2 µM (inactive) | 58.1 µM (inactive) | 88.3 µM (inactive) | > 100 µM (inactive) | 75.3 µM (inactive) | > 100 µM (inactive) | > 100 µM (inactive) |  | > 100 µM (inactive) | > 100 µM (inactive) | 41.2 µM (inactive) | > 100 µM (inactive) | > 100 µM (inactive) | > 100 µM (inactive) |
| CC12CCC3C(CCC4CC(OC(=O)Cc5ccc(N(CCCl)CCCl)cc5)CCC43C)C1CCC(=O)N2 (centres undefined) | 17.3 µM (inactive) | 7.41 µM (inactive) | 15.5 µM (inactive) | 16.3 µM (inactive) | 16.8 µM (inactive) | 3.67 µM (inactive) | 15.7 µM (inactive) | 16.4 µM (inactive) | 15.1 µM (inactive) | 11.2 µM (inactive) | 16.2 µM (inactive) | 15.9 µM (inactive) | 17.7 µM (inactive) | 18.2 µM (inactive) |  | 15.1 µM (inactive) | 18.2 µM (inactive) | 15.8 µM (inactive) | 15.1 µM (inactive) | 17.1 µM (inactive) |
| C[N+]1(C)CN(c2ccccc2)C2(CCN(CCCC(=O)c3cccs3)CC2)C1=O | 48 µM (inactive) | 71.6 µM (inactive) | > 100 µM (inactive) | > 100 µM (inactive) | > 100 µM (inactive) | 60 µM (inactive) | > 100 µM (inactive) | 31.8 µM (inactive) | > 100 µM (inactive) | > 100 µM (inactive) | 68.1 µM (inactive) | 96.8 µM (inactive) | 23.2 µM (inactive) | > 100 µM (inactive) | 85.1 µM (inactive) | > 100 µM (inactive) | 28.1 µM (inactive) | > 100 µM (inactive) | 58.9 µM (inactive) | > 100 µM (inactive) |
